Experimental findings from patent US7534793B2, “Aminopiperidine quinolines and their azaisosteric analogues with antibacterial activity” (priority 2003, dated 2009) are described below.

Where a name gives a salt, the structure may show the parent alone. Read-outs that look alike come from different tables or passages of the source. Where only a bound is given, the exact number is not on record here.

The experiment can be described thus: MIC of test compounds against various organisms. It is filed as cell-based.
The mark [1] stands for this setting: against one or more of the above range of gram positive and gram negative bacteria, read-out: MIC.

As usually defined, the MIC is the smallest concentration in the dilution series that meets the test's criterion for growth inhibition. As to `COc1ccc2nccc([C@@H](O)CN3CCC(NCc4cc5cc(Br)ccc5[nH]4)CC3)c2c1` [Example 9, (R)-2-{4-[(5-Bromo-1 H-indol-2-ylmethyl)amino]-piperidin-1-yl}-1-(6-methoxy-quinolin-4-yl)-ethanol, dioxalate], the MIC under setting [1] is at most 32 µg/mL.

Regarding `COc1ccc2nccc([C@@H](O)CN3CCC(NCc4cc5cccc(O)c5c(=O)[nH]4)CC3)c2c1` [Example 622, (R)-2-{4-[(8-Hydroxy-1-oxo-1,2-dihydro-isoquinolin-3-ylmethyl)-amino]-piperidin-1-yl}-1-(6-methoxyquinolin-4-yl)-ethanol trihydrochloride], the minimum inhibitory concentration (MIC) was at most 0.125 µg/mL.

Regarding `COc1ccc2nccc([C@@H](O)CN3CCC(NCc4cnc5scnc5c4)CC3)c2c1` [Example 623, (R)-1-(6-Methoxy-quinolin-4-yl)-2-{4-[(thiazolo[5,4-b]pyridin-6-ylmethyl)amino]-piperidin-1-yl}-ethanol dioxalate], the MIC under setting [1] was at most 2 µg/mL.

Regarding `COc1ccc2nccc([C@@H](O)CN3CCC(NCc4cc5cccnc5n4CC(=O)O)CC3)c2c1` [Example 624, (R)-1-(6-Methoxy-quinolin-4-yl)-2-{4-[(1-carboxymethyl-1H-pyrrolo[2,3-b]pyridine-2-ylmethyl)-amino]-piperidin-1-yl}-ethanol trihydrochloride], the MIC was at most 32 µg/mL.

Turning to `COc1ccc2nccc(NC(=O)N3CCC(NCc4nc5c(F)cc(F)cc5[nH]4)CC3)c2n1` [Example 403, 4-[(4,6-Difluoro-1H-benzimidazol-2-ylmethyl)-amino]-piperidine-1-carboxylic acid (6-methoxy-[1,5]naphthyridin-4-yl)-amide, oxalate], the minimal inhibitory concentration (MIC) under setting [1] is at most 2 µg/mL.

For `COc1cc(F)c2nccc(NC(=O)N3CCC(NCc4cnc5c(O)cccc5n4)CC3)c2c1F` [Example 620, 4-[(5-Hydroxy-quinoxalin-2-ylmethyl)amino]-piperidine-1-carboxylic acid (5,8-difluoro-6-methoxy-quinolin-4-yl)-amide oxalate], the MIC under setting [1] is at most 32 µg/mL.

Regarding `COc1ccc2nc(CNC3CCN(C[C@H](O)c4ccnc5ccc(OC)cc45)CC3)sc2c1` [Example 11, (R)-2-{4-[(6-Methoxy-benzothiazol-2-ylmethyl)-amino]-piperidin-1-yl}-1-(6-methoxy-quinolin-4-yl)-ethanol, dioxalate], the MIC under setting [1] was at most 32 µg/mL.

For the compound `COc1ccc2nccc([C@@H](O)CN3CCC(NCc4nc5cc(F)c(F)cc5[nH]4)CC3)c2c1.O=C(O)C(=O)O.O=C(O)C(=O)O` [Example 14, (R)-2-{4-[(5,6-Difluoro-1H-benzimidazol-2-ylmethyl)-amino]-piperidin-1-yl}-1-(6-methoxyquinolin-4-yl)-ethanol, dioxalate], under setting [1], the minimal inhibitory concentration (MIC) is at most 2 µg/mL.

On to `COc1ccc2nccc([C@@H](O)CN3CCC(N(CC(=O)O)Cc4cc5cccnc5n4CC(=O)O)CC3)c2c1` [Example 625, (R)-1-(6-Methoxy-quinolin-4-yl)-2-{4-[carboxymethyl-(1-carboxymethyl-1H-pyrrolo[2,3-b]pyridine-2-ylmethyl)-amino]-piperidin-1-yl}-ethanol dihydrochloride], for which the MIC was at most 32 µg/mL.

Turning to `COc1ccc2nccc(NC(=O)N3CCC(NCc4cc5ccccc5[nH]4)CC3)c2c1` [Example 406, 4-[(1H-Indol-2-ylmethyl)-amino]-piperidine-1-carboxylic acid (6-methoxy-quinolin-4-yl)amide, oxalate], the minimum inhibitory concentration (MIC) under setting [1] is at most 2 µg/mL.
